{
  "source": "ChEMBL document CHEMBL1155171",
  "about": "“Synergistic activity of dispersin B and cefamandole nafate in inhibition of staphylococcal biofilm growth on polyurethanes” (Antimicrob Agents Chemother, 2007)",
  "key": {"[1]": {"test_system": "Staphylococcus epidermidis", "test": "Antibacterial activity against oxacillin-sensitive Staphylococcus epidermidis ATCC 12228 at 0.25 ug/ml after 18 hrs", "assay_type": "functional, organism-based"}, "[2]": {"test_system": "Staphylococcus epidermidis", "test": "Antibacterial activity against oxacillin-sensitive Staphylococcus epidermidis ATCC 12228 assessed as reduction in number of viable biofilm associated bacteria in presence of dispersin B", "assay_type": "functional, organism-based"}},
  "note": "Active and inactive are the calls of the source. The calls are words filed in the database; no cut-off is given here.",
  "data": [
    {"smiles": "Cn1nnnc1SCC1=C(C(=O)O)N2C(=O)[C@@H](NC(=O)[C@H](OC=O)c3ccccc3)[C@H]2SC1", "values": [
      {"measurement": "Activity", "setting": "[1]", "result": "Active"},
      {"measurement": "Activity", "setting": "[2]", "result": "Active"}
    ]}
  ]
}
